Laboratory results taken from publication PMC9268591, “Anti-Inflammatory, Analgesic and Antioxidant Potential of New (2S,3S)-2-(4-isopropylbenzyl)-2-methyl-4-nitro-3-phenylbutanals and Their Corresponding Carboxylic Acids through In Vitro, In Silico and In Vivo Studies” (Molecules, 2022).
“And” between values parts separate entries of the source, which are not always exact repeats. Equal entries are not always repeated. Marks after values point to notes of the source that are not given here.

Experiments:
mice [1] = test: Hot plate test; design: species or system Swiss albino mice; details: mouse, in vivo
mice [2] = test: Formalin-induced paw-licking test; details: 5 mg/kg i.p.
Experimental: Swiss albino mice of both sexes with an average weight of 30 to 35 g were obtained from the respective section of NIH (National Institute of Health) Islamabad, Pakistan.
The early phase was initially five minutes, while the late phase was 15-30 min. In both the phases, the mice were under observation for licking. As per the protocols, naloxone (2 mg/kg), indomethacin (10 mg/kg) and morphine (5 mg/kg) were used [28].

SMILES: CN1CC[C@]23c4c5ccc(O)c4O[C@H]2[C@@H](O)C=C[C@H]3[C@H]1C5 [Morphine]
- Reaction time on hot plate (mice [1]): 12.88 ± 0.26 min and 12.31 ± 0.62 min and 11.86 ± 0.87 min
- Percent (%) inhibition, 0–5 min (mice [2]; early phase): 88.64 *** %
- Time spent (licking) 0–5 min (mice [2]; early phase): 6.50 ± 0.78 s
- Percent (%) inhibition, 0–5 min (mice [2]; early phase, listed as morphine): 88.64%
- Percent (%) inhibition, 15–30 min (mice [2]; late phase): 93.81 *** %
- Time spent (licking) 15–30 min (mice [2]; late phase): 4.83 ± 0.62 s
- Percent (%) inhibition, 15–30 min (mice [2]; late phase, listed as morphine): 93.81%
